Assays:
Format in all cases: in vivo
kochia (Bassia scoparia) [1] = assay: Test A postemergence application, visual injury rating 0-100; settings: Postemergence, 10 days; for Kochia plant response rating (0 to 100 scale): 0 is no effect, 100 is complete control
Procedure, shortened: (§1)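 Directed preemergence spray onto seeded soil or postemergence spray onto 2-10 cm plants (loam plus sand); compound carried in surfactant-containing non-phytotoxic solvent. Injury rated by eye after 10 d greenhouse growth; 0 = no effect, 100 = complete control.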

[2] = tested on: foxtail, giant (giant foxtail, Setaria faberi); assay: as above; settings: 10 days; for Foxtail, Giant plant response rating (0 to 100 scale): 0 is no effect, 100 is complete control
Procedure, shortened: as §1

[3] = tested on: goosegrass (Eleusine indica); assay: as above; settings: 1000 g ai/ha, 0 to 100 scale, 10 days
Procedure, shortened: as §1

[4] = tested on: palmer (palmer amaranth, palmer pigweed, Amaranthus palmeri); assay: as above; settings: Postemergence, 10 days; for Amaranth, Palmer / Pigweed, Palmer plant response rating (0 to 100 scale): 0 is no effect, 100 is complete control
Procedure, shortened: as §1

[5] = tested on: ryegrass, Italian (italian ryegrass, Lolium multiflorum); assay: as above; settings: Postemergence, 10 days; for Ryegrass, Italian plant response rating (0 to 100 scale): 0 is no effect, 100 is complete control
Procedure, shortened: as §1

[6] = tested on: ragweed (common ragweed, Ambrosia artemisiifolia); assay: as above; settings: Postemergence, 10 days; for Ragweed plant response rating (0 to 100 scale): 0 is no effect, 100 is complete control
Procedure, shortened: as §1

[7] = tested on: horseweed (Erigeron canadensis); assay: as above; settings: Postemergence, 10 days; for Horseweed plant response rating (0 to 100 scale): 0 is no effect, 100 is complete control
Procedure, shortened: as §1

[8] = tested on: blackgrass (Alopecurus myosuroides); assay: as above; settings: Postemergence, 10 days; for Blackgrass plant response rating (0 to 100 scale): 0 is no effect, 100 is complete control
Procedure, shortened: as §1

rice (Oryza sativa) = assay: Test B flooded paddy test, visual plant response rating 0-100; settings: 250 g ai/ha, Flood, applied to paddy water, evaluated after 13 days
Procedure, shortened: (§2)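 Greenhouse, 13 d. Seedlings at 2-leaf stage, pots flooded to 3 cm, compound delivered into floodwater, water level held constant. Evaluated visually relative to controls.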

[9] = tested on: sedge, umbrella (small-flower umbrella sedge, Cyperus difformis); assay: as above; settings: 250 g ai/ha, Flood, applied to paddy water, evaluated after 13 days
Procedure, shortened: as §2

[10] = tested on: barnyardgrass (Echinochloa crusgalli); assay: as above; settings: 250 g ai/ha, Flood, applied to paddy water, evaluated after 13 days
Procedure, shortened: as §2

[11] = tested on: ducksalad (Heteranthera limosa); assay: as above; settings: 250 g ai/ha, Flood, applied to paddy water, evaluated after 13 days
Procedure, shortened: as §2

kochia (Bassia scoparia) [12] = assay: Test A preemergence soil spray, visual injury rating 0-100; settings: 10 days, 0 = no effect, 100 = complete control
Procedure, shortened: as §1

[13] = tested on: foxtail, giant (giant foxtail, Setaria faberi); assay: as above; settings: 10 days, 0 = no effect, 100 = complete control
Procedure, shortened: as §1

[14] = tested on: goosegrass (Eleusine indica); assay: as above; settings: 1000 g ai/ha, 10 days, 0 = no effect, 100 = complete control
Procedure, shortened: as §1

[15] = tested on: palmer (palmer amaranth, palmer pigweed, Amaranthus palmeri); assay: as above; settings: 10 days, 0 = no effect, 100 = complete control
Procedure, shortened: as §1

[16] = tested on: ryegrass, Italian (italian ryegrass, Lolium multiflorum); assay: as above; settings: 10 days, 0 = no effect, 100 = complete control
Procedure, shortened: as §1

[17] = tested on: ragweed (common ragweed, Ambrosia artemisiifolia); assay: as above; settings: 10 days, 0 = no effect, 100 = complete control
Procedure, shortened: as §1

soybean (Glycine max) [18] = assay: Test A postemergence application, visual injury rating 0-100; settings: Postemergence, 10 days, 0 is no effect, 100 is complete control
Procedure, shortened: as §1

corn (Zea mays) [19] = assay: as above; settings: Postemergence, 10 days, 0 is no effect, 100 is complete control
Procedure, shortened: as §1

[20] = tested on: oat, wild (wild oat, Avena fatua); assay: as above; settings: Postemergence, 10 days, 0 is no effect, 100 is complete control
Procedure, shortened: as §1

[21] = tested on: wheat (Triticum aestivum); assay: as above; settings: Postemergence, 10 days, 0 is no effect, 100 is complete control
Procedure, shortened: as §1

[22] = tested on: galium (catchweed bedstraw, Galium aparine); assay: as above; settings: Postemergence, 10 days, 0 is no effect, 100 is complete control
Procedure, shortened: as §1

[23] = tested on: barnyardgrass (Echinochloa crus-galli); assay: as above; settings: Postemergence, 10 days, 0 is no effect, 100 is complete control
Procedure, shortened: as §1

soybean (Glycine max) [24] = assay: Test A preemergence soil spray, visual injury rating 0-100; settings: 10 days, 0 = no effect, 100 = complete control
Procedure, shortened: as §1

corn (Zea mays) [25] = assay: as above; settings: 10 days, 0 = no effect, 100 = complete control
Procedure, shortened: as §1

[26] = tested on: oat, wild (wild oat, Avena fatua); assay: as above; settings: 10 days, 0 = no effect, 100 = complete control
Procedure, shortened: as §1

[27] = tested on: wheat (Triticum aestivum); assay: as above; settings: 10 days, 0 = no effect, 100 = complete control
Procedure, shortened: as §1

[28] = tested on: barnyardgrass (Echinochloa crus-galli); assay: as above; settings: 10 days, 0 = no effect, 100 = complete control
Procedure, shortened: as §1

[29] = tested on: blackgrass (Alopecurus myosuroides); assay: as above; settings: 10 days, 0 = no effect, 100 = complete control
Procedure, shortened: as §1

COC(=O)[C@@H]1C=C[C@H](NC(=O)C2(C)CN(c3cc(F)cc(F)c3)C(=O)O2)C1 (stereo partly drawn) [Compound 27, Methyl (1S,4R)-4-[[[3-(3,5-difluorophenyl)-5-methyl-2-oxo-5-oxazolidinyl]carbonyl]amino]-2-cyclopentene-1-carboxylate]
85: Plant response rating, Ducksalad (0 to 100 scale, 0 is no effect and 100 is complete control) [11]
80: Kochia plant response rating (kochia (Bassia scoparia) [1]; 1000 g ai/ha, 0 to 100 scale) | Ragweed plant response rating ([6]; 1000 g ai/ha, 0 to 100 scale) | Horseweed plant response rating ([7]; 1000 g ai/ha, 0 to 100 scale)
100: Ryegrass, Italian plant response rating ([5]; 1000 g ai/ha, 0 to 100 scale) | Kochia plant response rating (0 to 100 scale) (kochia (Bassia scoparia) [12]; 1000 g ai/ha) | Foxtail, Giant plant response rating (0 to 100 scale) ([13]; 1000 g ai/ha) | Goosegrass plant response rating (0 to 100 scale) [14] | Amaranth, Palmer / Pigweed, Palmer plant response rating (0 to 100 scale) ([15]; 1000 g ai/ha) | Ryegrass, Italian plant response rating (0 to 100 scale) ([16]; 1000 g ai/ha)
50: Plant response rating, Sedge, Umbrella (0 to 100 scale, 0 is no effect and 100 is complete control) [9] | Ragweed plant response rating (0 to 100 scale) ([17]; 1000 g ai/ha)
90: Foxtail, Giant plant response rating ([2]; 1000 g ai/ha, 0 to 100 scale) | Goosegrass plant response rating [3] | Amaranth, Palmer plant response rating ([4]; 1000 g ai/ha, 0 to 100 scale) | Blackgrass plant response rating ([8]; 1000 g ai/ha, 0 to 100 scale) | Plant response rating, Barnyardgrass (0 to 100 scale, 0 is no effect and 100 is complete control) [10]
35: Plant response rating, Rice (0 to 100 scale, 0 is no effect and 100 is complete control) (rice (Oryza sativa))

CC1(C(=O)N[C@H]2C=C[C@@H](C(=O)O)C2)CN(c2cc(F)cc(F)c2)C(=O)O1 (stereo partly drawn) [Compound 51, (1S,4R)-4-[[[3-(3,5-Difluorophenyl)-5-methyl-2-oxo-5-oxazolidinyl]carbonyl]amino]-2-cyclopentene-1-carboxylic acid]
75: Plant response rating, Barnyardgrass (0 to 100 scale, 0 is no effect and 100 is complete control) [10]
90: Foxtail, Giant plant response rating (0 to 100 scale) ([2]; 125 g ai/ha) | Foxtail, Giant plant response rating (0 to 100 scale) ([2]; 500 g ai/ha) | Corn plant response rating (0 to 100 scale) (corn (Zea mays) [19]; 125 g ai/ha) | Corn plant response rating (0 to 100 scale) (corn (Zea mays) [19]; 500 g ai/ha) | Amaranth, Palmer / Pigweed, Palmer plant response rating (0 to 100 scale) ([4]; 125 g ai/ha) | Amaranth, Palmer / Pigweed, Palmer plant response rating (0 to 100 scale) ([4]; 500 g ai/ha) | Oat, Wild plant response rating (0 to 100 scale) ([20]; 125 g ai/ha) | Oat, Wild plant response rating (0 to 100 scale) ([20]; 500 g ai/ha) | Wheat plant response rating (0 to 100 scale) ([21]; 125 g ai/ha) | Wheat plant response rating (0 to 100 scale) ([21]; 500 g ai/ha) | Blackgrass plant response rating (0 to 100 scale) ([8]; 125 g ai/ha) | Kochia plant response rating (0 to 100 scale) (kochia (Bassia scoparia) [12]; 125 g ai/ha) | Foxtail, Giant plant response rating (0 to 100 scale) ([13]; 125 g ai/ha) | Corn plant response rating (0 to 100 scale) (corn (Zea mays) [25]; 125 g ai/ha) | Corn plant response rating (0 to 100 scale) (corn (Zea mays) [25]; 500 g ai/ha) | Amaranth, Palmer plant response rating (0 to 100 scale) ([15]; 125 g ai/ha) | Oat, Wild plant response rating (0 to 100 scale) ([26]; 125 g ai/ha) | Oat, Wild plant response rating (0 to 100 scale) ([26]; 500 g ai/ha) | Ryegrass, Italian plant response rating (0 to 100 scale) ([16]; 125 g ai/ha) | Blackgrass plant response rating (0 to 100 scale) ([29]; 500 g ai/ha)
80: Kochia plant response rating (0 to 100 scale) (kochia (Bassia scoparia) [1]; 125 g ai/ha) | Kochia plant response rating (0 to 100 scale) (kochia (Bassia scoparia) [1]; 500 g ai/ha) | Horseweed plant response rating (0 to 100 scale) ([7]; 125 g ai/ha) | Ragweed plant response rating (0 to 100 scale) ([17]; 500 g ai/ha) | Blackgrass plant response rating (0 to 100 scale) ([29]; 125 g ai/ha)
60: Ragweed plant response rating (0 to 100 scale) ([6]; 125 g ai/ha) | Plant response rating, Rice (0 to 100 scale, 0 is no effect and 100 is complete control) (rice (Oryza sativa)) | Plant response rating, Sedge, Umbrella (0 to 100 scale, 0 is no effect and 100 is complete control) [9] | Plant response rating, Ducksalad (0 to 100 scale, 0 is no effect and 100 is complete control) [11]
70: Soybean plant response rating (0 to 100 scale) (soybean (Glycine max) [18]; 125 g ai/ha) | Ryegrass, Italian plant response rating (0 to 100 scale) ([5]; 125 g ai/ha) | Ryegrass, Italian plant response rating (0 to 100 scale) ([5]; 500 g ai/ha) | Galium plant response rating (0 to 100 scale) ([22]; 125 g ai/ha) | Galium plant response rating (0 to 100 scale) ([22]; 500 g ai/ha) | Ragweed plant response rating (0 to 100 scale) ([6]; 500 g ai/ha) | Soybean plant response rating (0 to 100 scale) (soybean (Glycine max) [24]; 125 g ai/ha) | Ragweed plant response rating (0 to 100 scale) ([17]; 125 g ai/ha)
100: Soybean plant response rating (0 to 100 scale) (soybean (Glycine max) [18]; 500 g ai/ha) | Barnyardgrass plant response rating (0 to 100 scale) ([23]; 125 g ai/ha) | Barnyardgrass plant response rating (0 to 100 scale) ([23]; 500 g ai/ha) | Horseweed plant response rating (0 to 100 scale) ([7]; 500 g ai/ha) | Blackgrass plant response rating (0 to 100 scale) ([8]; 500 g ai/ha) | Kochia plant response rating (0 to 100 scale) (kochia (Bassia scoparia) [12]; 500 g ai/ha) | Foxtail, Giant plant response rating (0 to 100 scale) ([13]; 500 g ai/ha) | Soybean plant response rating (0 to 100 scale) (soybean (Glycine max) [24]; 500 g ai/ha) | Amaranth, Palmer plant response rating (0 to 100 scale) ([15]; 500 g ai/ha) | Wheat plant response rating (0 to 100 scale) ([27]; 125 g ai/ha) | Wheat plant response rating (0 to 100 scale) ([27]; 500 g ai/ha) | Ryegrass, Italian plant response rating (0 to 100 scale) ([16]; 500 g ai/ha) | Barnyardgrass plant response rating (0 to 100 scale) ([28]; 125 g ai/ha) | Barnyardgrass plant response rating (0 to 100 scale) ([28]; 500 g ai/ha)

From patent US20260285850A1, “SUBSTITUTED OXAZOLIDINONES AND IMIDAZOLINONES AS HERBICIDES” (FMC CORPORATION, priority 2023, published 2026)
